As a reminder, the IC50 is the concentration at which inhibition is half-maximal.

Each structure is given as a SMILES string. Counter-ions that a name gives are not always drawn.

The subject of the experiment is production of amyloid beta protein Aβ(1-42) (γ-secretase) in human WT-APP overexpressing CHO cells. Kind of experiment: Cell-Based γ-Secretase Assay with ELISA Readout. As to conditions: human WT-APP overexpressing CHO cells, ~24 hours at 37° C., Aβ(1-42) ELISA; footnotes: a = geometric mean of >15 determinations, b = single determination, c = geometric mean of 7-15 determinations; read-out: Aβ 42B IC50 (Geometric Mean of 2-6 Determinations). Here is the method: Cell-Based γ-Secretase Assay with ELISA Readout
The ability of compounds to modulate production of amyloid beta protein Aβ(1-42) was determined using human WT-APP overexpressing CHO cells. Cells were plated at 22,000 cells/100 μL well in 96 well tissue culture treated, clear plates (Falcon) in DMEM/F12 based medium and incubated for 24 hours at 37° C. Compounds for testing were diluted in 100% DMSO to achieve an eleven points, half log, dose response for IC50 determinations. Compounds were added in fresh medium to achieve 1% final DMSO. Appropriate vehicle or inhibitor controls were added into control wells individually to obtain minimum or maximum inhibition values, respectively, for the assay signal window before the plates were incubated for ˜24 hours at 37° C. This procedure produces conditioned media in each well which is tested for Aβ(1-42) levels in the ELISA detection step described next. The remaining cell cultures in each well are also tested for cell toxicity as described below.
Coating of ELISA assay plates was initiated by addition of 50 μL/well of an in-house Aβ(1-42) specific antibody at (3 μg/mL) in 0.1 M NaHCO3 (pH 9.0) into black 384-well Maxisorp® plates (Nunc) and incubated overnight at 4° C. The capture antibody was then aspirated from the ELISA assay plates and plates were washed 4×100 μL with Wash Buffer (Dulbecco's PBS, 0.05% Tween 20). 90 μL/well of Blocking Buffer (Dulbecco's PBS, 1.0% BSA (Sigma A7030)) was then added to plates. Ambient temperature incubation was allowed to proceed for a minimum of two hours. Blocking buffer was then removed and 20 μL/well Assay Buffer (Dulbecco's PBS, 1.0% BSA (Sigma A7030), 0.05% Tween 20) was then added. At this point, 40 μL (in duplicate) of experimental conditioned media (described above) were transferred into wells of the blocked ELISA plates containing the capture antibody, followed by overnight incubation at 4° C. Cell toxicity was also measured in the corresponding remaining cells after removal of the conditioned media for the Aβ(1-42) assay by a colorimetric cell proliferation assay (CellTiter 96® AQueous One Solution Cell Proliferation Assay, Promega) according to the manufacturer's instructions.
After overnight incubation of the ELISA assay plates at 4° C., unbound Aβ peptides were removed via (4×100 μL) washes with Wash Buffer. Europium (Eu) labeled (custom labeled, Perkin Elmer) Aβ(1-16) 6e10 Monoclonal Antibody (Covance #SIG-39320) was added, (50 μL/well Eu-6e10 @ 1:10,000, 20 uM EDTA) in Assay Buffer. Incubation at ambient temperature for a minimum of 2 hours was followed by (4×100 μL) washes with Wash Buffer, before 30 μL/well of Delfia Enhancement Solution (Perkin Elmer) was added. Following an one hour ambient temperature incubation, the plates were read on an EnVision plate reader (Perkin Elmer) using standard DELFIA TRF settings. Data analysis including inhibitory IC50 determination was performed using nonlinear regression fit analysis (in-house software) and the appropriate plate mean values for the maximum and minimum inhibition controls.
Turning to `Cc1cn(-c2ccc3n(c2=O)CCN(CCOc2cc(C(F)(F)F)nn2-c2ccc(F)cc2C)C3=O)cn1` [Example 56, 2-(2-{[1-(4-fluoro-2-methylphenyl)-3-(trifluoromethyl)-1H-pyrazol-5-yl]oxy}ethyl)-7-(4-methyl-1H-imidazol-1-yl)-3,4-dihydro-2H-pyrido[1,2-a]pyrazine-1,6-dione], the IC50 worked out at 399 nM.

For the molecule `Cc1cn(-c2ccc3n(c2=O)CCN(CCOc2ccccc2-c2csc(C)n2)C3=O)cn1` [Example 36, 7-(4-methyl-1H-imidazol-1-yl)-2-{2-[2-(2-methyl-1,3-thiazol-4-yl)phenoxy]ethyl}-3,4-dihydro-2H-pyrido[1,2-a]pyrazine-1,6-dione, trifluoroacetate salt], the IC50 was 302 nM.

As for `Cc1cn(-c2ccc3n(c2=O)CCN(CCOc2ccc(F)c4ccc(F)cc24)C3=O)cn1` [Example 98, 2-{2-[(4,7-difluoronaphthalen-1-yl)oxy]ethyl}-7-(4-methyl-1H-imidazol-1-yl)-3,4-dihydro-2H-pyrido[1,2-a]pyrazine-1,6-dione], the IC50 amounted to 19.4 nM.

In the case of `Cc1cn(-c2ccc3n(c2=O)CCN(CCOc2cccc(-c4ccccc4)c2)C3=O)cn1` [Example 18, 2-[2-(biphenyl-3-yloxy)ethyl]-7-(4-methyl-1H-imidazol-1-yl)-3,4-dihydro-2H-pyrido[1,2-a]pyrazine-1,6-dione], the IC50 turned out to be 151 nM.

As for `Cc1cn(-c2ccc3n(c2=O)CCN(CCOc2cccc4c(Cl)ccc(Cl)c24)C3=O)cn1` [Example 46, 2-{2-[(5,8-dichloro-1-naphthyl)oxy]ethyl}-7-(4-methyl-1H-imidazol-1-yl)-3,4-dihydro-2H-pyrido[1,2-a]pyrazine-1,6-dione, trifluoroacetate salt], the IC50 was found to be 9.38 nM.

`Cc1cn(-c2ccc3n(c2=O)CCN(CCOc2cccc4c2CC(F)(F)C4)C3=O)cn1` [Example 108, 2-{2-[(2,2-difluoro-2,3-dihydro-1H-inden-4-yl)oxy]ethyl}-7-(4-methyl-1H-imidazol-1-yl)-3,4-dihydro-2H-pyrido[1,2-a]pyrazine-1,6-dione]: the IC50 came out at 46.8 nM.

Take `Cc1cn(-c2ccc3n(c2=O)CCN(CCOc2ccc(Cl)cc2-c2cc(C(F)(F)F)[nH]n2)C3=O)cn1` [Example 59, 2-(2-{4-chloro-2-[5-(trifluoromethyl)-1H-pyrazol-3-yl]phenoxy}ethyl)-7-(4-methyl-1H-imidazol-1-yl)-3,4-dihydro-2H-pyrido[1,2-a]pyrazine-1,6-dione]: the IC50 is 530 nM.

Regarding `Cc1cn(-c2ccc3n(c2=O)CCN(CCOc2ccc(F)c4nc(C(F)(F)F)sc24)C3=O)cn1` [Example 73, 2-(2-{[4-fluoro-2-(trifluoromethyl)-1,3-benzothiazol-7-yl]oxy}ethyl)-7-(4-methyl-1H-imidazol-1-yl)-3,4-dihydro-2H-pyrido[1,2-a]pyrazine-1,6-dione], the IC50 is 43.7 nM.

Turning to `Cc1cn(-c2ccc3n(c2=O)CCN(CCOc2ccc(F)cc2-c2csc(C(F)(F)F)n2)C3=O)cn1` [Example 52, 2-(2-{4-fluoro-2-[2-(trifluoromethyl)-1,3-thiazol-4-yl]phenoxy}ethyl)-7-(4-methyl-1H-imidazol-1-yl)-3,4-dihydro-2H-pyrido[1,2-a]pyrazine-1,6-dione], the IC50 worked out at 23.5 nM.

Regarding `Cc1ccc(OCCN2CCn3c(ccc(-n4cnc(C)c4)c3=O)C2=O)c(Cl)c1` [Example 17, 2-[2-(2-chloro-4-methylphenoxy)ethyl]-7-(4-methyl-1H-imidazol-1-yl)-3,4-dihydro-2H-pyrido[1,2-a]pyrazine-1,6-dione], the IC50 turned out to be 153 nM.

Turning to `CCC(COc1ccc(F)cc1C(F)(F)F)N1CCn2c(ccc(-n3cnc(C)c3)c2=O)C1=O` (stereo not shown) [Example 103, 2-{1-[4-fluoro-2-(trifluoromethyl)phenoxy]butan-2-yl}-7-(4-methyl-1H-imidazol-1-yl)-3,4-dihydro-2H-pyrido[1,2-a]pyrazine-1,6-dione], the IC50 came out at 596 nM.

In the case of `Cc1cn(-c2ccc3n(c2=O)CCN([C@@H](C)COc2ccc(Cl)cc2C(F)(F)F)C3=O)cn1` [Example 107, 2-{(2S)-1-[4-chloro-2-(trifluoromethyl)phenoxy]propan-2-yl}-7-(4-methyl-1H-imidazol-1-yl)-3,4-dihydro-2H-pyrido[1,2-a]pyrazine-1,6-dione], the IC50 worked out at 34.4 nM.

In the case of `Cc1cn(-c2ccc3n(c2=O)CCN(CCOc2ccccc2-c2cc(C(F)(F)F)no2)C3=O)cn1` [Example 72, 7-(4-methyl-1H-imidazol-1-yl)-2-(2-{2-[3-(trifluoromethyl)isoxazol-5-yl]phenoxy}ethyl)-3,4-dihydro-2H-pyrido[1,2-a]pyrazine-1,6-dione], the IC50 amounted to 14.8 nM.

Regarding `Cc1cn(-c2ccc3n(c2=O)CCN(CCOc2ccc(F)cc2C2CC(F)(F)C2)C3=O)cn1` [Example 76, 2-{2-[2-(3,3-difluorocyclobutyl)-4-fluorophenoxy]ethyl}-7-(4-methyl-1H-imidazol-1-yl)-3,4-dihydro-2H-pyrido[1,2-a]pyrazine-1,6-dione], the IC50 was 58.6 nM.

As to `Cc1cn(-c2ccc3n(c2=O)CCN(CCOc2cccc(C(F)(F)F)c2Cl)C3=O)cn1` [Example 20, 2-{2-[2-chloro-3-(trifluoromethyl)phenoxy]ethyl}-7-(4-methyl-1H-imidazol-1-yl)-3,4-dihydro-2H-pyrido[1,2-a]pyrazine-1,6-dione], the IC50 was determined as 157 nM.

As for `Cc1cn(-c2ccc3n(c2=O)CCN(CCOc2ccc(F)cc2-c2ccnc(C(F)(F)F)c2)C3=O)cn1` [Example 48, 2-(2-{4-fluoro-2-[2-(trifluoromethyl)pyridin-4-yl]phenoxy}ethyl)-7-(4-methyl-1H-imidazol-1-yl)-3,4-dihydro-2H-pyrido[1,2-a]pyrazine-1,6-dione], the IC50 stood at 143 nM.

Take `Cc1cn(-c2ccc3n(c2=O)CCN(C(C)COc2ccc(F)cc2C(F)(F)F)C3=O)cn1` (stereo not shown) [Example 55, 2-{2-[4-fluoro-2-(trifluoromethyl)phenoxy]-1-methylethyl}-7-(4-methyl-1H-imidazol-1-yl)-3,4-dihydro-2H-pyrido[1,2-a]pyrazine-1,6-dione, formate salt]: the IC50 came to 168 nM.

With `Cc1cn(-c2ccc3n(c2=O)CCN(CCOc2ccccc2-c2cc(C(F)F)no2)C3=O)cn1` [Example 58, 2-(2-{2-[3-(difluoromethyl)isoxazol-5-yl]phenoxy}ethyl)-7-(4-methyl-1H-imidazol-1-yl)-3,4-dihydro-2H-pyrido[1,2-a]pyrazine-1,6-dione, trifluoroacetate salt], the IC50 was found to be 72.1 nM.

Consider `Cc1cn(-c2ccc3n(c2=O)CCN(CCOc2ccccc2-c2cc(C)ns2)C3=O)cn1` [Example 24, 7-(4-methyl-1H-imidazol-1-yl)-2-{2-[2-(3-methylisothiazol-5-yl)phenoxy]ethyl}-3,4-dihydro-2H-pyrido[1,2-a]pyrazine-1,6-dione], for which the IC50 stood at 104 nM.

`Cc1cn(-c2ccc3n(c2=O)CCN(CCOc2cccc4c2cc(C(F)(F)F)n4C)C3=O)cn1` [Example 102, 7-(4-methyl-1H-imidazol-1-yl)-2-(2-{[1-methyl-2-(trifluoromethyl)-1H-indol-4-yl]oxy}ethyl)-3,4-dihydro-2H-pyrido[1,2-a]pyrazine-1,6-dione]: the IC50 worked out at 33.7 nM.

On to `Cc1cn(-c2ccc3n(c2=O)CCN(CCOc2cccc4sc5ccccc5c24)C3=O)cn1` [Example 79, 2-[2-(dibenzo[b,d]thien-1-yloxy)ethyl]-7-(4-methyl-1H-imidazol-1-yl)-3,4-dihydro-2H-pyrido[1,2-a]pyrazine-1,6-dione], for which the IC50 turned out to be 7.23 nM.

Regarding `Cc1cn(-c2ccc3n(c2=O)CCN(CCOc2ccccc2C24CC(C2)C4)C3=O)cn1` [Example 106, 2-{2-[2-(bicyclo[1.1.1]pent-1-yl)phenoxy]ethyl}-7-(4-methyl-1H-imidazol-1-yl)-3,4-dihydro-2H-pyrido[1,2-a]pyrazine-1,6-dione], the IC50 came out at 27.4 nM.

Values taken from patent US9067934B2, “Bicyclic pyridinones” (Pfizer Inc., priority 2011, dated 2015).
